In publication PMC8400042, “Selective DNA Gyrase Inhibitors: Multi-Target in Silico Profiling with 3D-Pharmacophores” (Pharmaceuticals, 2021):
Like-named read-outs stand apart in the source and are kept apart here.

Assays:
human Hsp90α NTD [1] = molecular target: T1, human Hsp90α NTD (Homo sapiens, UniProt P07900); test: fluorescence-based thermal shift assay (FTSA), binding to Hsp90; settings: concentrations up to 100 μM
T1 construct: Production and purification of recombinant Hsp90α NTD have been described previously; made in house

human Hsp90α NTD [2] = molecular target: T1, human Hsp90α NTD; test: as above; settings: for Kd: FTSA
Protocol: Production and purification of recombinant Hsp90α NTD have been described previously. The molecular weight of the protein has been confirmed by high-resolution mass spectrometry, purity by SDS-PAGE, and the concentration was determined by UV-VIS spectrophotometry at 280 nm. The synthesis, chemical structure determination, and purity of compounds 1-7 have been previously described.
Compound binding to Hsp90 was determined by the fluorescence-based thermal shift assay (FTSA) which determines the thermal stability of the free and ligand-bound protein [61, 62, 63]. The stabilization efficiency is directly related to the ligand-binding affinity. The experiments were carried out with Corbett Rotor-Gene 6000 (QIAGEN Rotor-Gene Q) spectrofluorimeter (using excitation 365 ± 20 nm and detection at 460 ± 15 nm). Protein solutions in the presence of various concentrations of a compound were heated from 25 to 95 °C at a rate of 1 °C/min. Protein unfolding was monitored by measuring the fluorescence of 8-anilino-1-naphthalenesulfonate (ANS) dye at added 50 μM concentration. Increasing concentration of a compound shifted the protein denaturation temperature increasingly upwards depending on the binding affinity. Samples contained 5 μM protein, ligand concentration ranging from 0 to 200 μM, […] (pH 7.5) containing […] and 2% DMSO. Protein melting temperatures were determined by fitting the fluorescence curves while the compound dosing curves were simulated as described previously. All experiments were repeated at least twice.

[3] = molecular target: T2, human DNA topoisomerase IIα (Homo sapiens, UniProt P11388); test: human DNA topoisomerase IIα DNA relaxation assay (Inspiralis); type: biochemical; settings: for IC50: DNA relaxation assay, read-out: Human TopoII IC50; for inhibition of TopoII (in words): concentrations up to 100 μM
T2 construct: purchased Inspiralis
Protocol: Inhibitory activities were determined in an assay from Inspiralis on streptavidin-coated 96-well microtitre plates from Thermo Scientific Pierce. […] After washing off the unbound oligonucleotide, the enzyme assay was performed. […] Reaction solutions were incubated at 37 °C for 30 min. After that, the TF buffer (50 mM NaOAc, 50 mM NaCl, and 50 mM MgCl2, pH 5.0) was added to terminate the enzymatic reaction. After additional incubation for 30 min at RT, during which biotin–oligonucleotide–plasmid triplex was formed, the unbound plasmid was washed off using TF buffer, and Diamond Dye in T10 buffer (10 mM Tris·HCl, 1 mM EDTA, pH 8.0) was added. […] Initial screening was done at 100 or 10 μM concentrations of inhibitors. […] GraphPad Prism 6 software was used to calculate the IC50 values. The results are reported as the average value of three independent measurements.

E. coli DNA gyrase [4] = molecular target: T3, E. coli DNA gyrase (Escherichia coli, UniProt P0AES6); settings: cited from earlier work
T3 construct: purchased Inspiralis

E. coli DNA gyrase [5] = molecular target: T3, E. coli DNA gyrase; test: DNA supercoiling assay (Inspiralis); type: biochemical
Protocol: The DNA supercoiling assay from Inspiralis for the determination of IC50 values was performed according to previously reported procedures.

human Hsp90α NTD [6] = molecular target: T1, human Hsp90α NTD; settings: cited from earlier work
[7] = test system: Hsp90 C-terminal domain (CTD); design: method as in PMID 10945979, PMID 10655441; settings: cited from earlier work
human TopoII = test system: human TopoII; design: method as in PMID 2537141; settings: cited from earlier work
[8] = DNA supercoiling assay, read-out: E. coli DNA gyrase IC50

T2 sequence (P11388 whole entry): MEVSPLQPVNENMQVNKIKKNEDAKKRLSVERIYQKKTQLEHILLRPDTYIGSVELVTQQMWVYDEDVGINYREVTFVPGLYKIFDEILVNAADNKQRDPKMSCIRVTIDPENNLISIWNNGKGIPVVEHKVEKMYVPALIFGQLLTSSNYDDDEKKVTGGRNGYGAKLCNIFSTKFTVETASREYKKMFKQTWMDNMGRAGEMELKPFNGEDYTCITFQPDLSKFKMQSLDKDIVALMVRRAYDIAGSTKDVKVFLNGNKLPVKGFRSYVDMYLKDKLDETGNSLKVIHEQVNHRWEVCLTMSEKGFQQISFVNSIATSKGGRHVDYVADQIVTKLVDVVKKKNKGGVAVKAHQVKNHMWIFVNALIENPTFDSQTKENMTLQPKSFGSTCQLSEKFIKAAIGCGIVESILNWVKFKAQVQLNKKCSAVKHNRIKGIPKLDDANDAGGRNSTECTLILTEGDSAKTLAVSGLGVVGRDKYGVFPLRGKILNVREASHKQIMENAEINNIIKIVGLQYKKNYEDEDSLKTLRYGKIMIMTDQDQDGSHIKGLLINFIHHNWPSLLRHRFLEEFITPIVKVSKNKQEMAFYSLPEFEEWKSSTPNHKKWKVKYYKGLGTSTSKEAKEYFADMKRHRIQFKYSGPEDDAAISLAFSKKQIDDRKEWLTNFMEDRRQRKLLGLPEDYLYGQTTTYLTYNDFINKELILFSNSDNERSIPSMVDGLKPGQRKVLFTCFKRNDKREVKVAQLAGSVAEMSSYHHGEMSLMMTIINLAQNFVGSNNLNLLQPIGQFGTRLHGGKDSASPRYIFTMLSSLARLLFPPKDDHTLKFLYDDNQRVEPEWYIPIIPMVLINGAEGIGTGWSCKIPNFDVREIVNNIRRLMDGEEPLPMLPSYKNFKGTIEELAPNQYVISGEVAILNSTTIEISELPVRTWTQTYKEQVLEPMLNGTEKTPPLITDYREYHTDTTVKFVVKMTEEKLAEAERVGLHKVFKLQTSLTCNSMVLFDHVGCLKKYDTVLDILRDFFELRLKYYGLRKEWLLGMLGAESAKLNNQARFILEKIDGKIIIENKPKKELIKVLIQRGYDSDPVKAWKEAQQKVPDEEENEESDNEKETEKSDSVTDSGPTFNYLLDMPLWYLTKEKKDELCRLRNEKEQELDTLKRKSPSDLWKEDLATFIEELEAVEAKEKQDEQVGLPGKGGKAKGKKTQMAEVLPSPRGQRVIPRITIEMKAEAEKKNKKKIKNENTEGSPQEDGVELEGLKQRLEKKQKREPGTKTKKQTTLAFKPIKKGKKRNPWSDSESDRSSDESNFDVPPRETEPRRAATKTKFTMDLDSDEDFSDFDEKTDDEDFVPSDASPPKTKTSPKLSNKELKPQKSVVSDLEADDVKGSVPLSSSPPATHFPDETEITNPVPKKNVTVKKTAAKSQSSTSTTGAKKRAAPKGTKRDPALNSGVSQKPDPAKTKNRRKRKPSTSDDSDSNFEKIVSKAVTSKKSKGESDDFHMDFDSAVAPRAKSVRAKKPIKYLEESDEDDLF

SMILES | activity at Hsp90 in vitro (in words) (human Hsp90α NTD [2]) | Kd (human Hsp90α NTD [2]) [µM] | activity at TopoII in vitro (in words) [3] | IC50 [3] [µM] | activity at GyrB / DNA gyrase in vitro (in words) (E. coli DNA gyrase [5]) | IC50 (E. coli DNA gyrase [5]; [8]) [µM] | other results
O=C(O)C(=O)Nc1ccc2nc(NC(=O)c3cc(Cl)c(Cl)[nH]3)sc2c1 [Compound 1] | inactive | > 100 | inactive | > 100 | – | – | binding to Hsp90α NTD (in words) (human Hsp90α NTD [1]): devoid of activity; inhibition of TopoII (in words) [3]: devoid of activity
Cc1[nH]c(C(=O)N[C@H]2CCc3nc(NC(=O)CC(=O)O)sc3C2)c(Br)c1Br [Compound 2] | inactive | > 100 | inactive | > 100 | – | – | binding to Hsp90α NTD (in words) (human Hsp90α NTD [1]): devoid of activity; inhibition of TopoII (in words) [3]: devoid of activity; IC50 (E. coli DNA gyrase [4]; DNA supercoiling assay, read-out: Escherichia coli DNA gyrase IC50): < 0.1 µM; IC50 (E. coli DNA gyrase [4]; read-out: E. coli DNA gyrase IC50): 0.02 µM
COc1ccc(-c2snnc2-c2cc(Cl)c(O)cc2O)cc1 [Compound 3] | – | – | no inhibition | > 100 | no inhibition | – | IC50 (E. coli DNA gyrase [5]): > 100 µM
CC(C)Cc1cc(-c2nnsc2-c2ccccc2)c(O)cc1O [Compound 4] | – | – | no inhibition | > 100 | no inhibition | > 100 | Kd (human Hsp90α NTD [6]): 0.0066 µM
O=c1nc(SCc2cc(F)cc(C(F)(F)F)c2)nc(SCc2ccccc2F)[nH]1 [Compound 5] | inactive | > 100 | – | – | inactive | > 100 | –
O=c1nc(SCc2cc(F)cc(C(F)(F)F)c2)nc(SCc2ccc(Cl)cc2)[nH]1 [Compound 6] | inactive | > 100 | – | – | inactive | > 100 | –
NS(=O)(=O)c1c(F)c(F)c(SCCO)c(F)c1NC1CCCCCCC1 [Compound 7] | inactive | > 100 | inactive | > 100 | inactive | > 100 | –
CO[C@@H]1[C@@H](OC(N)=O)[C@@H](O)[C@H](Oc2ccc3c(O)c(NC(=O)c4ccc(O)c(CC=C(C)C)c4)c(=O)oc3c2C)OC1(C)C [novobiocin] | – | – | – | – | – | – | binding to allosteric binding site at Hsp90 CTD (in words) [7]: weakly bind; inhibition of human TopoII (in words) (human TopoII): inhibit
